Experimental data taken from patent US11802111B2, “Cyclobutyl amide monoacylglycerol lipase modulators” (Janssen Pharmaceutica NV, priority 2020, dated 2023).

Each compound was assayed against human MGL from HeLa cells (Homo sapiens (Human), UniProt Q99685) (assay: MGL in vitro activity assay ([glycerol-1,3-3H]-oleoyl glycerol hydrolysis, activated carbon filtration)). Conditions: 300 nM [Glycerol-1,3-3H]-oleoyl glycerol, one hour.
Chain of human MGL from HeLa cells (Q99685 whole entry): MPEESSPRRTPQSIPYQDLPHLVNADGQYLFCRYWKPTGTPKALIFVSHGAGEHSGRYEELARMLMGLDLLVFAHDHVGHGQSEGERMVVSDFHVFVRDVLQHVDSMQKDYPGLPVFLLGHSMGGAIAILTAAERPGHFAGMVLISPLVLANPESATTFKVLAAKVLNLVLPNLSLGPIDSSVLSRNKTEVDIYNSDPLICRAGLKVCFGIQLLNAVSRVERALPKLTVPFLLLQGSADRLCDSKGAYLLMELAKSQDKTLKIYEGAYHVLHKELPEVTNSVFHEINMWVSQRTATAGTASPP
Format: biochemical
How it was run: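 Activity measured as tritium in the flow-through after activated carbon filtration of a 1 h reaction containing 300 nM 3H-oleoyl glycerol, compound and HeLa-derived human MGL. Compounds screened at 10 μM; IC50 series start at an empirically chosen highest concentration.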
Compound `C[C@]1(O)C[C@@H](C(=O)N2CC3(CCC(Oc4cccc(OC(F)(F)F)c4)CC3)C2)C1` [Example 263, ((1s,3s)-3-Hydroxy-3-methylcyclobutyl)(7-(3-(trifluoromethoxy)phenoxy)-2-azaspiro[3.5]nonan-2-yl)methanone] has an IC50 of 12 nM.
`C[C@]1(O)C[C@@H](C(=O)N2CC3(CCC(Oc4cccc(C5CC5)c4)CC3)C2)C1` [Example 264, (7-(3-Cyclopropylphenoxy)-2-azaspiro[3.5]nonan-2-yl)((1s,3s)-3-hydroxy-3-methylcyclobutyl)methanone] showed an IC50 of 32 nM.
Work on `CC(C)c1ccccc1OC1CCC2(CC1)CN(C(=O)[C@H]1C[C@@](C)(O)C1)C2` [Example 265, ((1s,3s)-3-Hydroxy-3-methylcyclobutyl)(7-(2-isopropylphenoxy)-2-azaspiro[3.5]nonan-2-yl)methanone] yielded an IC50 of 37 nM.
In the case of `COC1(c2cccc(C(C)C)c2)CCC2(CC1)CN(C(=O)[C@H]1C[C@@](C)(O)C1)C2` [Example 266, ((1s,3s)-3-Hydroxy-3-methylcyclobutyl)(7-(3-isopropylphenyl)-7-methoxy-2-azaspiro[3.5]nonan-2-yl)methanone], the IC50 is reported as 1.2 nM.
In the case of `Cc1cc(C2CC3(C2)CN(C(=O)[C@H]2C[C@@](C)(O)C2)C3)cc(C(F)(F)F)c1` [Example 267, ((1s,3s)-3-Hydroxy-3-methylcyclobutyl)(6-(3-methyl-5-(trifluoromethyl)phenyl)-2-azaspiro[3.3]heptan-2-yl)methanone], the IC50 is reported as 65 nM.
Work on `Cn1ccc2cc(C3CC4(C3)CN(C(=O)[C@H]3C[C@@](C)(O)C3)C4)cnc21` [Example 268, ((1s,3s)-3-Hydroxy-3-methylcyclobutyl)(6-(1-methyl-1H-pyrrolo[2,3-b]pyridin-5-yl)-2-azaspiro[3.3]heptan-2-yl)methanone] yielded an IC50 of 2400 nM.
`Cn1ccc2ccc(C3CC4(C3)CN(C(=O)[C@H]3C[C@@](C)(O)C3)C4)nc21` [Example 269, ((1s,3s)-3-Hydroxy-3-methylcyclobutyl)(6-(1-methyl-1H-pyrrolo[2,3-b]pyridin-6-yl)-2-azaspiro[3.3]heptan-2-yl)methanone] was tested, and the IC50 was 507 nM.
Work on `COC1(Cc2ccccc2)CC2(CN(C(=O)[C@H]3C[C@@](C)(O)C3)C2)C1` [Example 270, (6-Benzyl-6-methoxy-2-azaspiro[3.3]heptan-2-yl)((1s,3s)-3-hydroxy-3-methylcyclobutyl)methanone] yielded an IC50 of 3290 nM.
For `C[C@]1(O)C[C@@H](C(=O)N2CC3(CC(Cc4ccccc4C4CC4)C3)C2)C1` [Example 271, (6-(2-Cyclopropylbenzyl)-2-azaspiro[3.3]heptan-2-yl)((1s,3s)-3-hydroxy-3-methylcyclobutyl)methanone], the IC50 was 3.6 nM.
Compound `C[C@]1(O)C[C@@H](C(=O)N2CC3(CC(Cc4ccc(OC5CC5)cc4)C3)C2)C1` [Example 272, (6-(4-Cyclopropoxybenzyl)-2-azaspiro[3.3]heptan-2-yl)((1s,3s)-3-hydroxy-3-methylcyclobutyl)methanone] has an IC50 of 8.1 nM.
`Cc1cc(F)ccc1CC1CC2(C1)CN(C(=O)[C@H]1C[C@@](C)(O)C1)C2` [Example 273, (6-(4-Fluoro-2-methylbenzyl)-2-azaspiro[3.3]heptan-2-yl)((1s,3s)-3-hydroxy-3-methylcyclobutyl)methanone] gave an IC50 of 9.9 nM.
In the case of `COc1ccc(CC2CC3(C2)CN(C(=O)[C@H]2C[C@@](C)(O)C2)C3)c(C(F)F)c1` [Example 274, (6-(2-(Difluoromethyl)-4-methoxybenzyl)-2-azaspiro[3.3]heptan-2-yl)((1s,3s)-3-hydroxy-3-methylcyclobutyl)methanone], the IC50 is reported as 6.2 nM.
`COc1cc(C(F)F)ccc1CC1CC2(C1)CN(C(=O)[C@H]1C[C@@](C)(O)C1)C2` [Example 275, (6-(4-(Difluoromethyl)-2-methoxybenzyl)-2-azaspiro[3.3]heptan-2-yl)((1s,3s)-3-hydroxy-3-methylcyclobutyl)methanone] showed an IC50 of 0.44 nM.
`COc1cc(CC2CC3(C2)CN(C(=O)[C@H]2C[C@@](C)(O)C2)C3)ccc1C(F)(F)F` [Example 276, ((1s,3s)-3-Hydroxy-3-methylcyclobutyl)(6-(3-methoxy-4-(trifluoromethyl)benzyl)-2-azaspiro[3.3]heptan-2-yl)methanone] gave an IC50 of 1 nM.
Work on `Cc1ccc(CC2CC3(C2)CN(C(=O)[C@H]2C[C@@](C)(O)C2)C3)nc1C(F)(F)F` [Example 277, ((1s,3s)-3-Hydroxy-3-methylcyclobutyl)(6-((5-methyl-6-(trifluoromethyl)pyridin-2-yl)methyl)-2-azaspiro[3.3]heptan-2-yl)methanone] yielded an IC50 of 18 nM.
Compound `Cc1nc(CC2CC3(C2)CN(C(=O)[C@H]2C[C@@](C)(O)C2)C3)ccc1C(F)(F)F` [Example 278, ((1s,3s)-3-Hydroxy-3-methylcyclobutyl)(6-((6-methyl-5-(trifluoromethyl)pyridin-2-yl)methyl)-2-azaspiro[3.3]heptan-2-yl)methanone] has an IC50 of 16 nM.
`Cc1ccc(CC2CC3(C2)CN(C(=O)[C@H]2C[C@@](C)(O)C2)C3)nc1OC(C)C` [Example 279, ((1s,3s)-3-Hydroxy-3-methylcyclobutyl)(6-((6-isopropoxy-5-methylpyridin-2-yl)methyl)-2-azaspiro[3.3]heptan-2-yl)methanone] showed an IC50 of 10 nM.
For `Cc1nc(CC2CC3(C2)CN(C(=O)[C@H]2C[C@@](C)(O)C2)C3)ccc1OC(F)F` [Example 280, (6-((5-(Difluoromethoxy)-6-methylpyridin-2-yl)methyl)-2-azaspiro[3.3]heptan-2-yl)((1s,3s)-3-hydroxy-3-methylcyclobutyl)methanone], the IC50 was 37 nM.
In the case of `COc1nc(CC2CC3(C2)CN(C(=O)[C@H]2C[C@@](C)(O)C2)C3)ccc1C(F)(F)F` [Example 281, ((1s,3s)-3-Hydroxy-3-methylcyclobutyl)(6-((6-methoxy-5-(trifluoromethyl)pyridin-2-yl)methyl)-2-azaspiro[3.3]heptan-2-yl)methanone], the IC50 is reported as 1.2 nM.
In the case of `CC(C)Oc1nc(CC2CC3(C2)CN(C(=O)[C@H]2C[C@@](C)(O)C2)C3)ccc1C(F)(F)F` [Example 282, ((1s,3s)-3-Hydroxy-3-methylcyclobutyl)(6-((6-isopropoxy-5-(trifluoromethyl)pyridin-2-yl)methyl)-2-azaspiro[3.3]heptan-2-yl)methanone], the IC50 is reported as 1 nM.
Work on `Cn1nc(CC2CC3(C2)CN(C(=O)[C@H]2C[C@@](C)(O)C2)C3)cc1C(F)(F)F` [Example 283, ((1s,3s)-3-Hydroxy-3-methylcyclobutyl)(6-((1-methyl-5-(trifluoromethyl)-1H-pyrazol-3-yl)methyl)-2-azaspiro[3.3]heptan-2-yl)methanone] yielded an IC50 of 116 nM.
In the case of `C[C@]1(O)C[C@@H](C(=O)N2CC3(CC(Cc4ccc5ccnn5c4)C3)C2)C1` [Example 284, ((1s,3s)-3-Hydroxy-3-methylcyclobutyl)(6-(pyrazolo[1,5-c]pyridin-6-ylmethyl)-2-azaspiro[3.3]heptan-2-yl)methanone], the IC50 is reported as 122 nM.
For `C[C@]1(O)C[C@@H](C(=O)N2CC3(CC(Cc4cccc5ccnn45)C3)C2)C1` [Example 285, ((1s,3s)-3-Hydroxy-3-methylcyclobutyl)(6-(pyrazolo[1,5-c]pyridin-7-ylmethyl)-2-azaspiro[3.3]heptan-2-yl)methanone], the IC50 was 47 nM.
With `C[C@]1(O)C[C@@H](C(=O)N2CC3(CC(Cn4ccc5cccnc54)C3)C2)C1` [Example 286, (6-((1H-Pyrrolo[2,3-b]pyridin-1-yl)methyl)-2-azaspiro[3.3]heptan-2-yl)((1s,3s)-3-hydroxy-3-methylcyclobutyl)methanone] the IC50 was 90 nM.
